Reference: patent US20210260051A1, “COMBINATION OF EZH2 INHIBITOR AND CHECKPOINT THERAPY FOR THE TREATMENT OF CANCER” (Board of Regents, The University of Texas System, priority 2018, published 2021)

Key:
EZH2 [1] = assay: flow cytometry of EZH2 expression in sorted peripheral T cell subsets before and after ipilimumab; assay type: in vivo, human; settings: peripheral blood, post-ipilimumab vs baseline; FIG. 7
Excerpt: FIG. 7: Flow cytometry analysis of EZH2 expression on CD4^+CD45RO^−CD45RA+CCR7^− (CD4 T effector, Teff), CD4^+CD25^+FoxP3^+ (T regulatory, T-reg) and CD8 T cells derived from peripheral blood mononuclear cells of patients with metastatic melanoma at baseline and after three doses of ipilimumab. Matched pair analysis of Ezh2 expression before and after ipilimumab therapy. Student t-test was used for significance (**p<0.01, *p<0.05).
Next, EZH2 expression was confirmed in peripheral CD4 T cells isolated from patients with metastatic prostate cancer at baseline and after three doses of ipilimumab (Subudhi et al., 2016). […] Next, EZH2 expression was evaluated on human CD4 effector T cells (CD4^+CD45RO^−CD45RA^+CCR7^−), regulatory T cells (CD4^+CD25^+FoxP3^+) and CD8 T cells sorted from peripheral blood of at baseline and post-ipilimumab therapy.
Tissue processing and flow cytometry. […] Staining with intracellular anti-Foxp3 (eBioscience, FJK-16 s), […] (eBioscience, PC61.5), antiKi-67 (eBioscience, SolA15), antiIFN-γ (BioLegend, XMG1.2), anti-TNF-α (BioLegend, MP6-XT22), and anti-EZH2 (Cell Signaling Technology, D2C9) were analyzed by flow cytometry according to the manufacturers’ instructions. Flow cytometry data were acquired on BD LSR II (BD Biosciences) and analyzed using FlowJo software (Tree Star, Ashland, Oreg.).

[2] = patients, in combination with other immune checkpoint therapy such as Nivolumab; cited from earlier work
EZH2 [3] = assay: EZH2 expression in peripheral CD4 T cells of patients with metastatic melanoma (RNA sequencing); assay type: in vivo, human; settings: after three doses vs baseline, FIG. 2B
Excerpt: (§1) FIGS. 2A-2C: Ipilimumab increases EZH2 expression in T cells. (FIG. 2A) Unsupervised hierarchical cluster analysis of RNA sequencing data from the peripheral CD4 T cells of patients with metastatic melanoma before and after 3 doses of ipilimumab therapy (week 7). (FIG. 2B) Matched pair analysis of EZH2 expression before and after ipilimumab therapy. (FIG. 2C) Ezh2 expression in peripheral CD4 T cells from patients with metastatic prostate cancer at baseline and after 3 doses of ipilimumab therapy. (2 tailed student t test was used to determine significance; **p<0.01).
T cell activation by CD28 signaling induces EZH2 expression (DuPage et al., 2015). It was postulated that exaggerated CD28 signaling due to anti-CTLA-4 therapy would increase EZH2 expression in T cells. To test this hypothesis, peripheral CD4 T cells were isolated from patients with metastatic melanoma who received ipilimumab as the first line of therapy for metastatic disease, at baseline and after three doses of ipilimumab therapy.
Patient samples. […]
RNA sequencing. […] For bioinformatics analysis, the raw reads were aligned to the mm10 reference genome using TopHat2. HTSeq count was used to count the raw reads that were uniquely mapped to each gene. DESeq2 was then applied to normalize the raw read counts and identify the differentially expressed genes between the groups. […]

EZH2 [4] = assay: EZH2 expression in peripheral CD4 T cells of patients with metastatic prostate cancer; assay type: in vivo, human; settings: after three doses vs baseline, FIG. 2C
Excerpt: as §1
Next, EZH2 expression was confirmed in peripheral CD4 T cells isolated from patients with metastatic prostate cancer at baseline and after three doses of ipilimumab (Subudhi et al., 2016). Like in patients with metastatic melanoma, increased EZH2 expression was found in CD4 T cells following ipilimumab therapy (FIG. 2C) that inversely correlated with prostate-specific antigen progression (FIG. 6). Next, EZH2 expression was evaluated on human CD4 effector T cells (CD4^+CD45RO^−CD45RA^+CCR7^−), regulatory T cells (CD4^+CD25^+FoxP3^+) and CD8 T cells sorted from peripheral blood of at baseline and post-ipilimumab therapy.
Patient samples. Metastatic melanoma samples were obtained from patients who received ipilimumab as the standard of care. […]

Substance: ipilimumab: a fully human monoclonal immunoglobulin G1 antibody that blocks cytotoxic T lymphocyte associated protein 4
- EZH2 expression in CD4 effector T cells, regulatory T cells and CD8 T cells (EZH2 [1]): increased in all three T cell subtypes
- side effect profile [2]: manageable side effect profile
- EZH2 expression in peripheral CD4 T cells (EZH2 [3]): increase
- EZH2 expression in CD4 T cells (EZH2 [4]): increased
